Results taken from paper PMC3281693 (The Journal of Biological Chemistry, 2011).

What was measured:
[1] = biological target: T1, Rpm1-NBARC (Arabidopsis thaliana, UniProt Q39214); conditions: 100 μM ATP, 10 nM protein; MgCl2, pH 7.5
T1 sequence (Q39214 177-519): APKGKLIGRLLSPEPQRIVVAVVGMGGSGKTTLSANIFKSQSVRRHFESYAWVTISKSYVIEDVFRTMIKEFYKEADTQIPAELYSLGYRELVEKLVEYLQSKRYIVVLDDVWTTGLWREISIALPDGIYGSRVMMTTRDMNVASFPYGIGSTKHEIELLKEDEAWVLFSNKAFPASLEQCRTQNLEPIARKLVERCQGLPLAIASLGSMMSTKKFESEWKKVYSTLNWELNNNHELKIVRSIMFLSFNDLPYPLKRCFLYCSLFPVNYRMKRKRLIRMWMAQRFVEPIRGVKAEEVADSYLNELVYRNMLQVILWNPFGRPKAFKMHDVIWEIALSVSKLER

[2] = biological target: the molecule itself; test: cross-linking

**Q.** With Nc1ncnc2c1ncn2[C@@H]1O[C@H](COP(=O)(O)OP(=O)(O)OP(=O)(O)O)[C@@H](O)[C@H]1O [ATP] as the molecule, how does the “nucleotide phosphatase assay, HPLC” value [1] read?
**A.** Its value is “Rpm1-NBARC catalyzed the production of Ado from ATP and ADP”.

B1: E. coli catabolite-activated protein (CAP) (natural protein, UniProt P0ACJ8 1-210, looked up)
chain: MVLGKPQTDPTLEWFLSHCHIHKYPSKSTLIHQGEKAETLYYIVKGSVAVLIKDEEGKEMILSYLNQGDFIGELGLFEEGQERSAWVRAKTACEVAEISYKKFRQLIQVNPDILMRLSAQMARRLQVTSEKVGNLAFLDVTGRIAQTLLNLAKQPDAMTHPDGMQIKITRQEIGQIVGCSRETVGRILKMLEDQNLISAHGKTIVVYGTR
**Q.** Which “stoichiometry N” value [2] does the source give for B1 here?
**A.** Its value is 2.
